# Tests used:
# [1] = tested on: U2OS cells; experiment: Circadian phase control in U2OS reporter cells; assay type: cell-based, human
# Excerpt: Hypothetically, a transient change in period will lead to a phase change, consequently providing a relevant approach to jetlag treatment. Therefore, we applied visible-light responsive modulator 9 to control the circadian phase (Fig. 7). The compound was initially irradiated with green light for inactivation (cis-enriched 9, Fig. 7a, timepoint A) and applied to U2OS cells for luminescence rhythm measurement. On the next day, the cells were irradiated with violet light for compound activation or kept in dark (Fig. 7a, timepoint B).
# Fig. 7 Circadian phase control using chronophotopharmacology. Green light (λmax = 530 nm)-irradiated compound 9 was applied to U2OS cells at 0 h (A). On the next day (B), the cells were irradiated with violet light (λmax = 400 nm) for 0 min (black and green lines), 10 min (light violet line), or 20 min (dark violet line). After 48 h or 72 h (C), the cells were irradiated with green light (λmax = 530 nm) for 0 min (black line) or 30 min (green, light violet, and dark violet lines). Luminescence rhythm profiles (average of n = 6) are shown in a. […] Luminescence is given in arbitrary units. n = 6 biologically independent samples. […]
# Stable U2OS reporter cells harboring Bmal1-dLuc reporter were suspended in phenol red-free culture medium [DMEM (D2902, Sigma) supplemented with 10% fetal bovine serum, 3.5 mg/mL D-glucose, 3.7 mg/mL sodium bicarbonate, 0.29 mg/mL L-glutamine, 100 units/mL penicillin, and 100 µg/mL streptomycin] and plated onto a white, solid-bottom 384-well plates at 30 µL (3000 cells) per well. […] Luminescence was recorded every 100 min in a microplate reader, Infinite M200Pro (Tecan). For the phase control experiments, cellular light irradiation was performed in a dark 32 °C room and luminescence was recorded in a microplate reader Synergy H1 (BioTek) placed in the same room, to avoid possible effect of transient temperature change on the phase. Circadian period and phase were determined from luminescence rhythms by a curve fitting program MultiCycle (Actimetrics). […]
# [2] = target: T1, CKIδ (Homo sapiens, UniProt P48730); experiment: In vitro kinase assay (Kinase Glo), CKIδ; assay type: biochemical; settings: green light 530 nm vs dark
# T1 construct: purchased Eurofins 14-520
# T1 sequence (P48730 1-294 limits assumed): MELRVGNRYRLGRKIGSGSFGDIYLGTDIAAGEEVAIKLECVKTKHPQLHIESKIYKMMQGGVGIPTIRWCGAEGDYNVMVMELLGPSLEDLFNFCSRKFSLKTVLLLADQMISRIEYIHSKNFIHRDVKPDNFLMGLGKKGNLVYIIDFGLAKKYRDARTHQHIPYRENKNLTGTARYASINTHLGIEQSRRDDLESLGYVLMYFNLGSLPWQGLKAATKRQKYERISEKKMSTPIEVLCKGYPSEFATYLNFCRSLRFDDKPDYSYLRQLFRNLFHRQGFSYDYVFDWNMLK
# Method: A stock solution of 7.4 mM in DMSO was prepared and thermally adapted by heating to c.a. 100 °C for 1 min. Two series of eight samples were prepared with consecutive three-time dilutions from the stock solution. One of the series (‘dark’ samples) was prepared in dark Eppendorf tube, the other series (‘light’ samples) was pre-irradiated with UV light (365 nm, UV lamp Spectroline, ENB-280/FE, 1 × 8 Watt) for 45 min. For compound 9, 1 mM solution in DMSO was thermally adapted by heating to 80 °C for 2 min and split into two vials. One vial was kept in the dark and the other was irradiated with green light (530 nm, 3x Nichia NCSG219B-V1, 3 × 550 mW, Sahlmann Photochemical Solutions) for 60 min. Both dark-kept and irradiated samples were subjected to 8-point 3-fold dilutions. All the solutions were applied to the well plate under a red lamp in the dark room in order to prevent ambient-light-induced photo-isomerization. […]
# By employing this method, all reactions were started at the same time, minimizing variance between different samples. […] After the incubation, 10 μL Kinase Glo® (Promega) was applied into the wells and the luminescent signal was recorded by a plate reader (BioTek Synergy H1 or Cytation). […]
# The data obtained from the in vitro kinase assay was analyzed using GraphPad software, in which the luminescence outcome is normalized. […]
structure (smiles),measurement,setting,value
CC(C)n1cnc2c(NCc3ccc(F)c(/N=N/c4c(F)cccc4F)c3F)ncnc21 [Compound 9],period after green light reversal,[1]; after time point C,returned to normal
same,"phase delay compared with dark samples, 48 h condition","[1]; violet light activation, reversed by green light after 48 h",2 h
same,"phase delay compared with dark samples, 72 h condition","[1]; violet light activation, reversed by green light after 72 h",4 h
same,ratio of CKIδ IC50 of cis-isomer to trans-isomer,[2],3.7 times

# — paper PMC8155176, “Reversible modulation of circadian time with chronophotopharmacology” (Nature Communications, 2021)
